Reference: article PMC12447631 (Environmental science & technology, 2018)

Biological target: T1, MGS0156 (uncultured organism, UniProt A0A0G3FEJ8)
T1 sequence (A0A0G3FEJ8 75-421): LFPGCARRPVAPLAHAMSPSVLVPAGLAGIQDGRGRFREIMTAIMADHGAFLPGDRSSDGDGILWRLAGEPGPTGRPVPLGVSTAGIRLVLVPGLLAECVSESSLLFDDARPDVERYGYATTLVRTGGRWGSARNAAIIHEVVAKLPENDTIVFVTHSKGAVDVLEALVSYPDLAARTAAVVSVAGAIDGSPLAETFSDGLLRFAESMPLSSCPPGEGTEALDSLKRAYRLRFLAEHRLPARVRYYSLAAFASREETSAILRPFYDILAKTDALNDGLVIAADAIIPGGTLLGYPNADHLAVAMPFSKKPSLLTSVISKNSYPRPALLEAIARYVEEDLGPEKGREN
Test: spectrophotometric pNP ester hydrolysis
Assay type: biochemical
Details: 0.5 mM substrate, 50 mM HEPES-K pH 8.0, 30 °C

Q: Which specific activity does the source give for `CCCCCCCC(=O)Oc1ccc([N+](=O)[O-])cc1` [pNP-octanoate] here?
A: MGS0156 was most active against pNP -octanoate and pNP -decanoate (C8–C10 substrates)
